Test results as given in US9938301B2, “Dihydropyrimido fused ring derivative as HBV inhibitor” (QILU PHARMACEUTICAL CO., LTD., priority 2014, dated 2018).

Columns and labels:
[1] = test system: HBV DNA in HepG2.2.15 cells; test: HBV in vitro assay quantitive qPCR test; format: cell-based; conditions: Hepatitis B virus
Method: • 1 Purpose of the test: • The content of HBV DNA in HepG2.2.15 cells was detected by real time quantitive qPCR test to evaluate an inhibitory action of the compound on HBV with an EC50 value of the compound as an indicator. • 2 Experimental materials: • 2.1 Cell lines: HepG2.2.15 Cells • HepG2.2.15 cell culture media (DMEM/F12, Invitrogen-11330057; 10% serum, Invitrogen-10099141; 100 units/ml Penicillin and 10 μg/ml Streptomycin, Invitrogen-15140122; 1% non-essential amino acid, Invitrogen-1140076; 2 mM L-GLUTAMINE, Invitrogen-25030081; 300 μg/ml Geneticin, Invitrogen-10131027 • 2.2 Reagents: • trypsin (Invitrogen-25300062) • DPBS (Hyclone-SH30028.01B) • DMSO (Sigma-D2650-100ML) • High-Throughput DNA Purification Kit (QIAamp 96 DNA Blood Kit, Qiagen-51162) • Quantitative Fast Start Universal Probe Reagent (FastStart Universal Probe Master, Roche-04914058001) • 2.3 Materials and Instruments: • 96-well cell culture plate (Corning-3599) • CO2 Incubator (HERA-CELL-240) • Optical Sealing Membrane (ABI-4311971) • Quantitative PCR 96-well Plate (Applied Biosystems-4306737) • Fluorescent Quantitative PCR Instrument (Applied Biosystems-7500 real time PCR system) • 3. Testing steps and Methods: • 3.1 HepG2.2.15 cells (4×10^4 cells/well) were planted into a 96-well plate, and at 37° C., 5% CO2 cultured overnight. • 3.2 On Day 2, the compounds were diluted in totally 8 concentrations with a dilution gradient of three times. The compounds at different concentrations were added into the culture wells in duplicate. The final concentration of DMSO in the culture media was 1%. 1 μM GLS4 was used as 100% inhibition control; 1% DMSO as 0% inhibition control. • 3.3 On Day 5, replacing with the fresh culture media containing the compound was performed. • 3.4 On Day 8, the culture media in the culture wells was collected, and DNA was extracted with a High-Throughput DNA Purification Kit (Qiagen-51162), See Specification of the product for specific steps. • 3.5 Preparation of PCR Reaction Mixture was shown in Table 1:
• 3.6 To each well of a 96-well PCR plate was added 15 μl reaction mixture, and then to each well was added 10 μl sample DNA or HBV DNA standard. • 3.7 The reaction conditions of PCR were: heating at 95° C. for 10 minutes; then at 95° C. denaturing for 15 seconds, and at 60° C. extending for 1 minute, totally 40 cycles. • 3.8 Data Analysis: • 3.8.1 The inhibition percentage was calculated: % Inh.=[1−(DNA copy number in sample−DNA copy number in 1 μM GLS4)/(DNA copy number in DMSO control−DNA copy number in 1 μM GLS4)]×100. • 3.8.2 Calculating EC50: the concentration of the compound for 50% inhibition of HBV (EC50) was calculated by using GraphPad Prism Software. • 4 Testing Results • The testing results were shown in Table 3: […]

[2] = test system: HBV DNA in HepG2.2.15 cells; test: HBV in vitro dot-blot hybridization test; format: cell-based, Hepatitis B virus
Summary of the method: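 HepG2.2.15 cells (4×10^4/well) treated in duplicate with 6 five-fold compound dilutions (1% DMSO final), medium with compound renewed on day 5, cells harvested day 8-9. Intracellular HBV DNA quantified by dot-blot with DIG-labelled probe; % inhibition normalised to 1 μM GLS4 (100%) and DMSO (0%), EC50 fitted.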

[3] = qPCR assay, HepG2.2.15 cells, read-out: Concentration for 50% inhibition of HBV (EC50)value
[4] = summary list of target compounds, Examples 166-220 (values of Table 3), HepG2.2.15 cells, read-out: BIOACTIVITY (inhibitory actions on HBV DNA, EC50)
[5] = Hepatitis B virus, HepG2.2.15, dot-blot hybridization assay, read-out: Concentration for 50% inhibition of HBV (EC50)value
[6] = Hepatitis B virus, HepG2.2.15, summary list of target compounds, Examples 1-165 (same as Table 2), read-out: BIOACTIVITY (inhibitory actions on HBV DNA, EC50)
[7] = dot-blot hybridization assay, read-out: Concentration for 50% inhibition of HBV (EC50)value
[8] = summary list of target compounds, Examples 1-165 (same as Table 2), read-out: BIOACTIVITY (inhibitory actions on HBV DNA, EC50)

Row | SMILES | EC50 [2, 5] | EC50 [2, 6] | further results
1 | COC(=O)C1=C2C[C@H](NS(=O)(=O)CCN)CN2C(c2nccs2)=N[C@H]1c1ccc(F)cc1Cl [Example 171] |  |  | EC50 [1, 3]: < 0.1 µM; EC50 [1, 4]: < 0.1 µM
2 | COC(=O)C1=C2C[C@@H](NS(C)(=O)=O)CN2C(c2nccs2)=N[C@H]1c1ccc(F)cc1Cl [Example 181] |  |  | EC50 [1, 3]: < 0.1 µM; EC50 [1, 4]: < 0.1 µM
3 | COC(=O)C1=C2C[C@H](NS(N)(=O)=O)CN2C(c2nccs2)=N[C@H]1c1ccc(F)c(F)c1Cl [Example 198] |  |  | EC50 [1, 3]: < 0.1 µM; EC50 [1, 4]: < 0.1 µM
4 | COC(=O)C1=C2C[C@H](NS(=O)(=O)NC(C)C)CN2C(c2nccs2)=N[C@H]1c1ccc(F)c(F)c1F [Example 209] |  |  | EC50 [1, 3]: < 0.1 µM; EC50 [1, 4]: < 0.1 µM
5 | COC(=O)C1=C2C[C@H](NS(=O)(=O)N3CCC3)CN2C(c2nccs2)=N[C@H]1c1ccc(F)c(F)c1F [Example 212] |  |  | EC50 [1, 3]: 0.1 to 0.5 µM; EC50 [1, 4]: 0.1 to 0.5 µM
6 | CCOP(=O)(N[C@H]1CC2=C(C(=O)OC)[C@H](c3ccc(F)cc3Cl)N=C(c3nccs3)N2C1)OCC [Example 174] |  |  | EC50 ([1]; HepG2.2.15, read-out: BIOACTIVITY (inhibitory actions on HBV DNA, EC50)): 0.1 to 0.5 µM; EC50 ([1]; HepG2.2.15, read-out: Concentration for 50% inhibition of HBV (EC50)value): 0.1 to 0.5 µM
7 | COC(=O)C1=C2C[C@H](N(CC(=O)O)S(C)(=O)=O)CN2C(c2nccs2)=N[C@H]1c1ccc(F)cc1Cl [Example 186] |  |  | EC50 [1, 3]: 1 to 5 µM; EC50 [1, 4]: 1 to 5 µM
8 | CCOC(=O)C1=C2C[C@H](CN3CCOCC3)CN2C(c2nccs2)=N[C@H]1c1ccc(F)cc1Br [Example 15] | 0.1 to 0.5 µM | 0.1 to 0.5 µM | 
9 | CCOC(=O)C1=C2C[C@H](NS(C)(=O)=O)CN2C(c2nccs2)=N[C@H]1c1ccc(F)cc1Br [Example 59] | < 0.1 µM | < 0.1 µM | 
10 | O=C(OCC(F)F)C1=C2CCCN2C(c2nccs2)=NC1c1ccc(F)cc1Br (racemic) [Example 81] | 1 to 5 µM | 1 to 5 µM | 
11 | CCOC(=O)C1=C2[C@@H](NS(C)(=O)=O)CCN2C(c2nccs2)=N[C@H]1c1ccc(F)cc1Br [Example 146] | 1 to 5 µM | 1 to 5 µM | 
12 | CCOC(=O)C1=C2C[C@H](NS(=O)(=O)c3cnn(C)c3)CN2C(c2nccs2)=N[C@H]1c1ccc(F)cc1Cl [Example 132] | < 0.1 µM | < 0.1 µM | 
13 | CCOC(=O)C1=C2C[C@H](O)CN2C(c2nccs2)=N[C@H]1c1ccc(F)cc1Cl [Example 34] | 0.1 to 0.5 µM | 0.1 to 0.5 µM | 
14 | CCOC(=O)C1=C2C[C@@H](C#N)CN2C(c2nccs2)=NC1c1ccc(F)cc1Br (mixture of isomers) [Example 27] |  |  | EC50 [2, 7]: 0.1 to 0.5 µM; EC50 [2, 8]: 0.1 to 0.5 µM
15 | CCOC(=O)C1=C2C[C@H](NS(=O)(=O)C(F)F)CN2C(c2nccs2)=N[C@H]1c1ccc(F)cc1Cl [Example 128] | < 0.1 µM | < 0.1 µM | 
16 | CCOC(=O)C1=C2CC(NS(=O)(=O)C3CC3)CN2C(c2nccs2)=N[C@H]1c1ccc(F)cc1Br (some centres unmarked) [Example 61] | < 0.1 µM | < 0.1 µM | 
17 | CCOC(=O)C1=C2C[C@H](N(C)S(C)(=O)=O)CN2C(c2nccs2)=N[C@H]1c1ccc(F)cc1Cl [Example 157] | < 0.1 µM | < 0.1 µM | 
18 | CCOC(=O)C1=C2C[C@H](N(C)C)CN2C(c2nccs2)=N[C@H]1c1ccc(F)cc1Br [Example 36] | 0.5 to 1 µM | 0.5 to 1 µM | 
19 | CCOC(=O)C1=C2C[C@H](CNC(C)=O)CN2C(c2nccs2)=N[C@H]1c1ccc(F)cc1Br [Example 120] | < 0.1 µM | < 0.1 µM | 
20 | CCOC(=O)C1=C2C[C@H](NS(C)(=O)=O)CN2C(c2nccs2)=N[C@H]1c1ccc(F)c(F)c1 [Example 148] | 0.1 to 0.5 µM | 0.1 to 0.5 µM | 
21 | CCOC(=O)C1=C2C[C@H](CC(=O)O)CN2C(c2nccs2)=N[C@H]1c1ccc(F)cc1Br [Example 14] | 0.5 to 1 µM | 0.5 to 1 µM | 

Row | SMILES | EC50 [2, 5] | EC50 [2, 6] | further results
22 | CCOC(=O)C1=C2C[C@H](NS(=O)(=O)C(F)F)CN2C(c2nccs2)=N[C@H]1c1ccc(F)cc1Br [Example 124] | < 0.1 µM | < 0.1 µM | 
23 | CCOC(=O)C1=C2CC(NS(=O)(=O)C(F)(F)F)CN2C(c2nccs2)=N[C@H]1c1ccc(F)cc1Br (some centres unmarked) [Example 63] | 0.1 to 0.5 µM | 0.1 to 0.5 µM | 
24 | CCOC(=O)C1=C2C[C@@H](CN3CCOCC3)CN2C(c2nccs2)=NC1c1ccc(F)cc1Br (mixture of isomers) [Example 18] |  |  | EC50 [2, 8]: 1 to 5 µM
25 | CCNC(=S)N1CCN2C(c3nccs3)=N[C@@H](c3ccc(F)cc3Br)C(C(=O)OCC)=C2C1 [Example 103] | 0.1 to 0.5 µM | 0.1 to 0.5 µM | 
26 | CCOC(=O)C1=C2CN(Cc3cocn3)CCN2C(c2nccs2)=NC1c1ccc(F)cc1Br (centres unmarked) [Example 100] | 1 to 5 µM | 1 to 5 µM | 
27 | CCOC(=O)C1=C2CCCN2C(c2nccs2)=NC1c1ccc(F)cc1F (racemic) [Example 72] | 0.5 to 1 µM | 0.5 to 1 µM | 
28 | CCOC(=O)C1=C2C[C@@H](CO)CN2C(c2nccs2)=NC1c1ccc(F)cc1Br (mixture of isomers) [Example 9] |  |  | EC50 [2, 8]: 0.1 to 0.5 µM
29 | CCOC(=O)C1=C2CCCN2C(c2nccn2C)=NC1c1ccc(F)cc1Cl (racemic) [Example 78] | 1 to 5 µM | 1 to 5 µM | 
30 | CCOC(=O)C1=C2C[C@@H](NS(C)(=O)=O)CN2C(c2nccs2)=N[C@H]1c1ccc(F)cc1Cl [Example 126] | < 0.1 µM | < 0.1 µM | 
31 | CCOC(=O)C1=C2CCCN2C(c2nccs2)=N[C@H]1c1ccc(F)cc1Br [Example 5] | 0.1 to 0.5 µM | 0.1 to 0.5 µM | 
32 | CCOC(=O)C1=C2C[C@@H](CS(C)(=O)=O)CN2C(c2nccs2)=N[C@H]1c1ccc(F)cc1Br [Example 113] | 0.1 to 0.5 µM | 0.1 to 0.5 µM | 
33 | CCOC(=O)C1=C2C[C@@H](CC(=O)O)CN2C(c2nccs2)=N[C@H]1c1ccc(F)cc1Br [Example 13] | 0.1 to 0.5 µM | 0.1 to 0.5 µM | 
34 | CCOC(=O)C1=C2CCCN2C(c2nccs2)=NC1c1ccc(F)cc1C (racemic) [Example 71] | 0.1 to 0.5 µM | 0.1 to 0.5 µM | 
35 | CCOC(=O)C1=C2C[C@H](N3CCOCC3)CN2C(c2nccs2)=N[C@H]1c1ccc(F)cc1Cl [Example 130] | < 0.1 µM | < 0.1 µM | 
36 | CCOC(=O)C1=C2C[C@@H](CC#N)CN2C(c2nccs2)=NC1c1ccc(F)cc1Br (mixture of isomers) [Example 12] |  |  | EC50 [2, 7]: 0.1 to 0.5 µM; EC50 [2, 8]: 0.1 to 0.5 µM
37 | CCOC(=O)C1=C2CN(S(=O)(=O)C3CC3)CCN2C(c2nccs2)=N[C@H]1c1ccc(F)cc1Br [Example 93] | 0.1 to 0.5 µM | 0.1 to 0.5 µM | 
38 | CCOC(=O)C1=C2COCCN2C(c2nccs2)=NC1c1ccc(F)cc1Br (racemic) [Example 110] | 1 to 5 µM | 1 to 5 µM | 
39 | CCOC(=O)C1=C2C[C@@H](CNS(=O)(=O)C3CC3)CN2C(c2nccs2)=N[C@H]1c1ccc(F)cc1Br [Example 122] | 1 to 5 µM | 1 to 5 µM | 
40 | CCOC(=O)C1=C2CCCN2C(c2ncc(F)cc2F)=NC1c1ccc(F)cc1Cl (racemic) [Example 76] | 1 to 5 µM | 1 to 5 µM | 
41 | CCOC(=O)C1=C2CC(NC(=O)OC)CN2C(c2nccs2)=N[C@H]1c1ccc(F)cc1Br (mixture of isomers) [Example 42] | < 0.1 µM | < 0.1 µM | 
